Patent US9980943B2, “Methods of treating muscular dystrophy” (BOARD OF REGENTS OF THE NEVADA SYSTEM OF HIGHER EDUCATION, …, priority 2013, dated 2018)

Assays:
Format in all cases: cell-based, mouse
[1] = test system: α7 integrin (LacZ reporter in α7βgal+/− myoblasts); assay: Myoblast α7+/LacZ integrin FDG assay (Burkin assay in myoblasts, 96-well); settings: α7+/LacZ myoblasts, 96-well
[2] = test system: β-galactosidase in CMV-LacZ C2C12 myotubes; assay: CMV-LacZ secondary screen in C2C12 myotubes (β-Gal stabilizing assay); settings: for CMV-LACZ in Myotubes (β-galactosidase activity relative to DMSO): CMV-LacZ C2C12 myotubes, 96-well format
Source text: In order to determine compounds that acted to stabilize β-gal in myogenic cells, a CMV-LacZ C2C12 cell line was used in a secondary screen. The EGFP gene from the pEGFP (Clontech) vector was replaced by LACZ PCR product with digests of the vector/PCR product performed using EcoRI (NEB) and NotI (NEB) and ligated using T4 DNA Ligase (NEB) following standard procedures to produce the CMV-LACZ vector. The LACZ gene was generated by PCR from the pBK-RSV (Stratagene) vector using primers LACZ EcoRI F- and LACZ NotI R-. The CMV-LACZ vector was then digested with AfIII (NEB) to linearize the construct, which was then transfected in C2C12 myoblasts using Lipofectamine 2000 (Invitrogen) following the manufacturer's instructions. […] Clonal lines were selected and screened for βgal levels using the myoblast FDG assay.
The assays were used the original 96-well format and new dose-response curves for myoblasts (N=3-6 replicates for each data point), myotubes (N=3-6 replicates for data point), and CMV-LacZ secondary assay (N=2 replicates for each data point) using concentrations of 0.5 μM, 1 μM, 5 μM, 10 μM, 20 μM, and 40 μM (Tables 9-16).

[3] = test system: α7 integrin (LacZ reporter in α7+/LacZ myotubes); assay: Myotube α7 integrin FDG assay (Burkin assay in myotubes, 96-well); settings: myotubes
[4] = 5 uM, C2C12 CMV-LacZ myotubes, fold relative to DMSO
[5] = 10 uM, C2C12 CMV-LacZ myotubes, fold relative to DMSO
[6] = 20 uM, C2C12 CMV-LacZ myotubes, fold relative to DMSO
[7] = 40 uM, C2C12 CMV-LacZ myotubes, fold relative to DMSO

Row | SMILES | Burkin Assay in Myoblasts, signal relative to DMSO ([1]; 0.5 uM) | Burkin Assay in Myoblasts, signal relative to DMSO ([1]; 1 uM) | Burkin Assay in Myoblasts, signal relative to DMSO ([1]; 5 uM) | Burkin Assay in Myoblasts, signal relative to DMSO ([1]; 10 uM) | Burkin Assay in Myoblasts, signal relative to DMSO ([1]; 20 uM) | Burkin Assay in Myoblasts, signal relative to DMSO ([1]; 40 uM) | CMV-LACZ in Myotubes, signal relative to DMSO [2, 4] | CMV-LACZ in Myotubes, signal relative to DMSO [2, 5] | CMV-LACZ in Myotubes, signal relative to DMSO [2, 6] | CMV-LACZ in Myotubes, signal relative to DMSO [2, 7] | Burkin Assay in Myotubes, α7 integrin LacZ reporter signal relative to DMSO ([3]; 0.5 uM) | Burkin Assay in Myotubes, α7 integrin LacZ reporter signal relative to DMSO ([3]; 1 uM) | Burkin Assay in Myotubes, α7 integrin LacZ reporter signal relative to DMSO ([3]; 5 uM) | Burkin Assay in Myotubes, α7 integrin LacZ reporter signal relative to DMSO ([3]; 10 uM) | Burkin Assay in Myotubes, α7 integrin LacZ reporter signal relative to DMSO ([3]; 20 uM) | Burkin Assay in Myotubes, α7 integrin LacZ reporter signal relative to DMSO ([3]; 40 uM) | Burkin Assay in Myoblasts, value relative to DMSO ([1]; 0.5 uM) | Burkin Assay in Myoblasts, value relative to DMSO ([1]; 1 uM) | Burkin Assay in Myoblasts, value relative to DMSO ([1]; 5 uM) | Burkin Assay in Myoblasts, value relative to DMSO ([1]; 10 uM) | further results
1 | Cc1cccc(NC(=O)c2ccc(N3C(=O)C4CCCCC4C3=O)cc2)c1C (stereo not drawn) [MLS001147727-01] | 1.212 | 1.039 | 1.029 | 0.8892 | 1.128 | 0.9044 | 1.12 | 0.9069 | 1.2365 | 1.1835 | 0.9937 | 0.7877 | 1.101 | 0.9716 | 1.11 | 0.9652 |  |  |  |  | 
2 | CCCC(=O)Nc1ccccc1NC(=O)c1ccc(OCC)cc1 [MLS000685139-01] |  |  |  |  |  |  |  |  |  |  |  |  |  |  |  |  | 0.8234 | 0.6285 | 0.8416 | 0.776 | Burkin Assay in Myoblasts, value relative to DMSO ([1]; 20 uM): 0.9893; Burkin Assay in Myoblasts, value relative to DMSO ([1]; 40 uM): 0.9848; CMV-LACZ in Myotubes (β-galactosidase activity relative to DMSO) ([2]; 5 uM): 0.9362; CMV-LACZ in Myotubes (β-galactosidase activity relative to DMSO) ([2]; 10 uM): 1.036; CMV-LACZ in Myotubes (β-galactosidase activity relative to DMSO) ([2]; 20 uM): 1.031; CMV-LACZ in Myotubes (β-galactosidase activity relative to DMSO) ([2]; 40 uM): 0.9387; Burkin Assay in Myotubes (signal relative to DMSO) ([3]; 0.5 uM): 0.8703; Burkin Assay in Myotubes (signal relative to DMSO) ([3]; 1 uM): 0.9202; Burkin Assay in Myotubes (signal relative to DMSO) ([3]; 5 uM): 1.128; Burkin Assay in Myotubes (signal relative to DMSO) ([3]; 10 uM): 1.24; Burkin Assay in Myotubes (signal relative to DMSO) ([3]; 20 uM): 1.102; Burkin Assay in Myotubes (signal relative to DMSO) ([3]; 40 uM): 1.267
3 | COc1ccc2oc(C[S+]([O-])c3ccccc3)c(C(=O)O)c2c1 (stereo not drawn) [MLS001208858-01] | 0.9851 | 1.003 | 0.8892 | 0.8759 | 0.8548 | 0.8425 | 0.944 | 0.8018 | 0.9471 | 0.9238 | 1.095 | 0.9977 | 1.104 | 1.062 | 1.1 | 1.007 |  |  |  |  | 
4 | O=c1nc(C2CCN(S(=O)(=O)c3ccc4c(c3)OCCO4)CC2)nc2n(Cc3c(F)cccc3Cl)[nH]nc1-2 [MLS001223482-01] |  |  |  |  |  |  |  |  |  |  |  |  |  |  |  |  |  |  |  |  | fold induction at 0.5 µM ([1]; Mus musculus, Myoblast, 48 h, 0.5 uM, read-out: Burkin Assay in Myoblasts, signal relative to DMSO): 1.06; fold induction at 1 µM ([1]; Mus musculus, Myoblast, 48 h, 1 uM, read-out: Burkin Assay in Myoblasts, signal relative to DMSO): 1.09; fold induction at 5 µM ([1]; Mus musculus, Myoblast, 48 h, 5 uM, read-out: Burkin Assay in Myoblasts, signal relative to DMSO): 1.01; fold induction at 10 µM ([1]; Mus musculus, Myoblast, 48 h, 10 uM, read-out: Burkin Assay in Myoblasts, signal relative to DMSO): 1.02; fold induction at 20 µM ([1]; Mus musculus, Myoblast, 48 h, 20 uM, read-out: Burkin Assay in Myoblasts, signal relative to DMSO): 1.29; fold induction at 40 µM ([1]; Mus musculus, Myoblast, 48 h, 40 uM, read-out: Burkin Assay in Myoblasts, signal relative to DMSO): 0.98; fold induction at 5 µM ([2]; Mus musculus, 5 uM, C2C12 CMV-LacZ myotubes, fold relative to DMSO, read-out: CMV-LACZ in Myotubes, signal relative to DMSO): 0.907; fold induction at 10 µM ([2]; Mus musculus, 10 uM, C2C12 CMV-LacZ myotubes, fold relative to DMSO, read-out: CMV-LACZ in Myotubes, signal relative to DMSO): 0.793; fold induction at 20 µM ([2]; Mus musculus, 20 uM, C2C12 CMV-LacZ myotubes, fold relative to DMSO, read-out: CMV-LACZ in Myotubes, signal relative to DMSO): 0.858; fold induction at 40 µM ([2]; Mus musculus, 40 uM, C2C12 CMV-LacZ myotubes, fold relative to DMSO, read-out: CMV-LACZ in Myotubes, signal relative to DMSO): 0.809; fold induction at 0.5 µM ([3]; Mus musculus, Myotube, 0.5 uM, read-out: Burkin Assay in Myotubes, α7 integrin LacZ reporter signal relative to DMSO): 1.06; fold induction at 1 µM ([3]; Mus musculus, Myotube, 1 uM, read-out: Burkin Assay in Myotubes, α7 integrin LacZ reporter signal relative to DMSO): 1.15; fold induction at 5 µM ([3]; Mus musculus, Myotube, 5 uM, read-out: Burkin Assay in Myotubes, α7 integrin LacZ reporter signal relative to DMSO): 1.27; fold induction at 10 µM ([3]; Mus musculus, Myotube, 10 uM, read-out: Burkin Assay in Myotubes, α7 integrin LacZ reporter signal relative to DMSO): 1.53; fold induction at 20 µM ([3]; Mus musculus, Myotube, 20 uM, read-out: Burkin Assay in Myotubes, α7 integrin LacZ reporter signal relative to DMSO): 1.13; fold induction at 40 µM ([3]; Mus musculus, Myotube, 40 uM, read-out: Burkin Assay in Myotubes, α7 integrin LacZ reporter signal relative to DMSO): 0.967
5 | Cc1cc(C)cc(-n2nnc(C(=O)NCc3ccccc3Cl)c2N)c1 [MLS000094770-01] |  |  |  |  |  |  | 0.8081 | 0.9406 | 0.9412 | 0.8421 |  |  |  |  |  |  | 1.021 | 0.9676 | 0.9491 | 0.9866 | Burkin Assay in Myoblasts, value relative to DMSO ([1]; 20 uM): 0.7999; Burkin Assay in Myoblasts, value relative to DMSO ([1]; 40 uM): 0.6762; Burkin Assay in Myotubes (signal relative to DMSO) ([3]; 0.5 uM): 1.14; Burkin Assay in Myotubes (signal relative to DMSO) ([3]; 1 uM): 1; Burkin Assay in Myotubes (signal relative to DMSO) ([3]; 5 uM): 1.317; Burkin Assay in Myotubes (signal relative to DMSO) ([3]; 10 uM): 0.823; Burkin Assay in Myotubes (signal relative to DMSO) ([3]; 20 uM): 0.8175; Burkin Assay in Myotubes (signal relative to DMSO) ([3]; 40 uM): 0.7119
6 | COc1ccc(CNC(=O)COC(=O)CCc2c[nH]c3ccccc23)cc1 [MLS001033202-01] | 0.6682 | 0.9153 | 0.9952 | 0.9282 | 0.8408 | 0.7704 | 0.9658 | 0.9933 | 0.8214 | 1.2 | 1.057 | 1.019 | 1.042 | 1.0906 | 1.051 | 0.986 |  |  |  |  | 
